In US10639251B2, “Method for inhibiting or masking fishy odours” (Symrise AG, priority 2015, dated 2020):
Blank lines part the entries; values can stand above or below the molecule they belong to.

What was measured:
MOR42-3 = target: T1, MOR42-3 (Mus musculus, UniProt E9PX47); assay: Cre-luciferase reporter gene assay, concentration-response curve of azelaic acid on MOR42-3 (Dual-Glo Luciferase, transfected HANA3A cells); assay type: cell-based; conditions: agonist alone; murine olfactory receptor MOR42-3 recombinantly expressed in HANA3A cells with RTP1S, G-protein αolf, pGL4-luciferase and pRL-TK-Renilla reporters; 4 h at 37° C.; Hill fit; n=3 in duplicate; FIG. 4A left
T1 construct: CRE-luciferase readout normalized to Renilla
T1 sequence (E9PX47 1-334): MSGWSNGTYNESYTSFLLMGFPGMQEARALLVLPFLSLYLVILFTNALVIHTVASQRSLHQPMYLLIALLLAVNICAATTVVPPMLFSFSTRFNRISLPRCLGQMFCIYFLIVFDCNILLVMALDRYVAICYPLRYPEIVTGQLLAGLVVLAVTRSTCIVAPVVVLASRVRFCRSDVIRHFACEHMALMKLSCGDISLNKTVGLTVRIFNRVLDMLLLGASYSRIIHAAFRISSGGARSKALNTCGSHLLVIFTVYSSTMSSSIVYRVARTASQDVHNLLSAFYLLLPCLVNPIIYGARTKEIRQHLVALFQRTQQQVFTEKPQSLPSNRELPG
Method: (§1) In order to identify suitable antagonist for TMA the protocol of Zhuang and Matsunami for measuring receptor activity with the Dual-Glo Luciferase Assay System (Promega) was adapted [see Nat. Protoc. 3(9), p. 1402-1413 (2008)]. HANA3A cells were maintained under standard conditions in DMEM supplemented with 10% FBS and 100 units/ml penicillin and streptomycin at 37° C. Cells (approximately 15,000 cells/well) were plated on poly-D-lysine-coated 96-well plates (NUNC) and transfected after 24 h with the FuGENE® HD (Promega) transfection reagent according to the manufacturer's protocol. […] Expression rates of Cre-luciferase were monitored by luminescent enzymatic reactivity. Thus, luminescence signals correlate with receptor activation. […]
(§2) For statistical analysis of Cre-luciferase assay data, two-tailed unpaired Student's t-test. […] Sensory data was analyzed using non-parametric statistical tests. The overall difference between the group thresholds was determined by a Kruskal-Wallis test, followed by a Dunn post-hoc test for the respective pairwise comparisons.
(§3) Another experiment was directed to figure out whether the Timberol® block is exclusively mediated by hTAAR5. […] Then the impact of Timberol® on MOR42-3- and hOR51E1-mediated responses to the respective agonists was tested with concentrations below and above the calculated EC50 values. […]

hTAAR5 [1] = target: T2, hTAAR5 (Homo sapiens, UniProt O14804); assay: Cre-luciferase reporter gene assay, hTAAR5-mediated responses to TMA in transfected HANA3A cells; assay type: cell-based; conditions: TMA 300 μM, putative antagonist 100 μM
T2 construct: expressed in transfected cells; host or cells: HANA3A cells
T2 sequence (O14804 1-337): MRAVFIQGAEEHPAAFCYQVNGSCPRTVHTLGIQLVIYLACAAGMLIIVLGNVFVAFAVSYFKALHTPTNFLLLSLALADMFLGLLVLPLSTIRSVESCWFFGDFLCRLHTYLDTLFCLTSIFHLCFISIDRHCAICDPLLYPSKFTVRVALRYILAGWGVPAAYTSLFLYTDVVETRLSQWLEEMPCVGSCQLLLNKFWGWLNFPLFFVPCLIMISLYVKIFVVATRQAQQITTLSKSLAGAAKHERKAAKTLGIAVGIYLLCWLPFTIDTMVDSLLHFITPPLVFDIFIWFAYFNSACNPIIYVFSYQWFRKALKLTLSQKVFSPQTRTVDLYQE
Method: In order to identify suitable antagonist for TMA the protocol of Zhuang and Matsunami for measuring receptor activity with the Dual-Glo Luciferase Assay System (Promega) was adapted [see Nat. Protoc. 3(9), p. 1402-1413 (2008)]. HANA3A cells were maintained under standard conditions in DMEM supplemented with 10% FBS and 100 units/ml penicillin and streptomycin at 37° C. Cells (approximately 15,000 cells/well) were plated on poly-D-lysine-coated 96-well plates (NUNC) and transfected after 24 h with the FuGENE® HD (Promega) transfection reagent according to the manufacturer's protocol. In a 96-well plate, we placed 18 μl transfection reagent, 1-5 μg receptor plasmid, 2 μg pGL4-luciferase reporter, 1 μg pRL-TK-Renilla reporter, 0.5 μg G-protein αolf, 1 μg receptor transport protein (RTP1S) and 1 μg M3 muscarinic acetylcholine receptor (for hOR51E1) to ensure cell surface expression. Cells were stimulated 24 h after transfection for 4 h at 37° C. with test substances diluted in CD 293 medium (1×) (Life Technologies) with 2 mM L-glutamine (Life Technologies) added. After stimulation with test substances, recombinant hTAAR5 activation elevated cAMP and the subsequent expression of the cAMP-dependent reporter gene construct Cre-luciferase. Expression rates of Cre-luciferase were monitored by luminescent enzymatic reactivity. Thus, luminescence signals correlate with receptor activation. The Renilla luciferase reporter driven by a constitutively active TK-promoter (pRL-TK-Renilla) served as an internal control to determine cell viability and transfection efficiency. Firefly luciferase activity to the Renilla luciferase signal was normalized for all wells. The ratios of antagonistic stimulation were normalized to the ratios of agonist stimulation. Furthermore, mock-transfected cells were stimulated to exclude unspecific responses to the tested substances.
To identify blocker substances for hTAAR5-mediated responses to TMA, the Cre-luciferase reporter gene assay was used. Human TAAR5-transfected HANA3A cells were stimulated with a mix of the agonist TMA (300 μM) and 100 μM of a potential blocker substance (FIG. 1).
For more detailed information concerning the type of antagonism (competitive vs. non-competitive) in the following experiments, the pharmacological profile of Timberol® was characterized. To test the concentration dependency of the Timberol® block, a concentration-inhibition curve (FIG. 2a) was measured. The blocking effect was increased with increasing concentrations of Timberol® and decreased with increasing concentrations of the agonist TMA. The latter was reflected by a significant concentration-inhibition curve shift.

panelists = assay: Olfactory detection threshold of TMA, 3-alternative forced-choice, ISO 13301; assay type: in vivo, human; conditions: for olfactory detection threshold of TMA: buffered aqueous solution pH 9
Method: In addition, olfactory detection thresholds were assessed in aqueous solutions using a best estimate threshold approach as described in ISO 13301. In brief, samples containing different concentrations of analyte were presented in ascending order in a 3-alternative forced-choice design. Each concentration set consisted of three samples with one deviating sample containing a defined amount of trimethylamine. Samples were presented in amber vials (30 ml) coded with three digits and filled with 10 ml of solution, and panelists were required to designate the sample that differed from the others.
Thresholds of TMA were measured in buffered aqueous solution i) without additive ii) with 1% (m/m) Timberol® and iii) with 0.1% Mugetanol (isointense to 1% Timberol®). These experiments were performed separately on different days with the same panelists. In the case of testing in the presence of fragrance components (Timberol® or Mugetanol), all three samples of a given concentration set contained the same amount of fragrance components and differed only in the presence/absence of TMA. In each session, a total of 10 concentration sets ranging from […] to 1.00×10^−5% (m/m) TMA were evaluated. The concentration doubled in each step.
The aqueous solutions were buffered with TRIS (50 mM), and the pH was adjusted to 9 to have approximately 13% of the TMA in a deprotonated and thus volatile form. Furthermore, an odorless emulsifier was added to a final concentration of 3% (m/m) to dissolve Timberol®.
In a second step, the influence of Timberol® on the perception of TMA was investigated using a psychophysical approach. Therefore the detection thresholds of TMA alone and in the presence of suprathreshold concentrations of Timberol® were tested. Threshold measurements were performed in a 3-alternative forced-choice design according to ISO 13301. A total of 10 concentrations (binary dilution steps) ranging from […] to 1.00×10^−5% (m/m) TMA were examined.

hTAAR5 [2] = target: T2, hTAAR5; conditions: agonist; cited from earlier work
humans = conditions: in vivo; cited from earlier work
hOR51E1 = target: T3, hOR51E1 (Homo sapiens, UniProt Q8TCB6); assay: Cre-luciferase reporter gene assay, concentration-response curve of nonanoic acid on hOR51E1 (Dual-Glo Luciferase, transfected HANA3A cells); assay type: cell-based; set-up: expressed in transfected cells; host or cells: HANA3A; conditions: agonist alone; human olfactory receptor hOR51E1 recombinantly expressed in HANA3A cells with RTP1S, G-protein αolf, M3 muscarinic acetylcholine receptor, pGL4-luciferase and pRL-TK-Renilla reporters; 4 h at 37° C.; Hill fit; n=3 in duplicate; FIG. 4B left
T3 sequence (Q8TCB6 1-318): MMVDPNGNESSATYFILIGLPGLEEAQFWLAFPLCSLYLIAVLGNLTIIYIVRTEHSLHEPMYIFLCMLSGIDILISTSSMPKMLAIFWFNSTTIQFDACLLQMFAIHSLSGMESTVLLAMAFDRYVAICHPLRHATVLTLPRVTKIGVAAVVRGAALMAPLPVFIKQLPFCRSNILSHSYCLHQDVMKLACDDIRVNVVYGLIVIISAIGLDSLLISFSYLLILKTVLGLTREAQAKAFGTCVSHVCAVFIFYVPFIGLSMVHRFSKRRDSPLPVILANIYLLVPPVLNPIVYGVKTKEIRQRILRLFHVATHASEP
Method: as §1, §2, §3

- EC50 (MOR42-3): 2670 ± 470 nM
Compound: O=C(O)CCCCCCCC(=O)O [Azelaic acid, azelaic acid]

Compound: CC(C)C1CCC(C(C)O)CC1 (centres unmarked) [Mugetanol, reference compound]
- reduction / inhibition of hTAAR5-mediated TMA responses (hTAAR5 [1]): does not inhibit
- influence of additive on TMA detection threshold / perception (panelists; 1% Timberol or 0.1% Mugetanol (isointense)): does not influence significantly

Compound: CN(C)C [TMA, trimethylamine, reference compound]
- olfactory detection threshold of TMA (panelists; TMA alone): 2.0×10^−7 % (m/m)
- olfactory detection threshold of TMA (panelists; in the presence of Timberol (1% m/m)): 1.0×10^−6 % (m/m)
- activation of hTAAR5 (hTAAR5 [2]): specifically activated
- detection threshold in humans (humans): 0.00047 ppm

Compound: CCCCCCCCC(=O)O [Nonanoic acid, nonanoic acid]
- EC50 (hOR51E1): 103 ± 23.1 µM
